“And” between values parts separate entries of the source, which are not always exact repeats. Equal values may be shown once.
target: PTPβ (Homo sapiens, UniProt P23467); assay: PTP inhibition assay (pNPP); type: biochemical; settings: not given
Sequence (P23467 23-1997): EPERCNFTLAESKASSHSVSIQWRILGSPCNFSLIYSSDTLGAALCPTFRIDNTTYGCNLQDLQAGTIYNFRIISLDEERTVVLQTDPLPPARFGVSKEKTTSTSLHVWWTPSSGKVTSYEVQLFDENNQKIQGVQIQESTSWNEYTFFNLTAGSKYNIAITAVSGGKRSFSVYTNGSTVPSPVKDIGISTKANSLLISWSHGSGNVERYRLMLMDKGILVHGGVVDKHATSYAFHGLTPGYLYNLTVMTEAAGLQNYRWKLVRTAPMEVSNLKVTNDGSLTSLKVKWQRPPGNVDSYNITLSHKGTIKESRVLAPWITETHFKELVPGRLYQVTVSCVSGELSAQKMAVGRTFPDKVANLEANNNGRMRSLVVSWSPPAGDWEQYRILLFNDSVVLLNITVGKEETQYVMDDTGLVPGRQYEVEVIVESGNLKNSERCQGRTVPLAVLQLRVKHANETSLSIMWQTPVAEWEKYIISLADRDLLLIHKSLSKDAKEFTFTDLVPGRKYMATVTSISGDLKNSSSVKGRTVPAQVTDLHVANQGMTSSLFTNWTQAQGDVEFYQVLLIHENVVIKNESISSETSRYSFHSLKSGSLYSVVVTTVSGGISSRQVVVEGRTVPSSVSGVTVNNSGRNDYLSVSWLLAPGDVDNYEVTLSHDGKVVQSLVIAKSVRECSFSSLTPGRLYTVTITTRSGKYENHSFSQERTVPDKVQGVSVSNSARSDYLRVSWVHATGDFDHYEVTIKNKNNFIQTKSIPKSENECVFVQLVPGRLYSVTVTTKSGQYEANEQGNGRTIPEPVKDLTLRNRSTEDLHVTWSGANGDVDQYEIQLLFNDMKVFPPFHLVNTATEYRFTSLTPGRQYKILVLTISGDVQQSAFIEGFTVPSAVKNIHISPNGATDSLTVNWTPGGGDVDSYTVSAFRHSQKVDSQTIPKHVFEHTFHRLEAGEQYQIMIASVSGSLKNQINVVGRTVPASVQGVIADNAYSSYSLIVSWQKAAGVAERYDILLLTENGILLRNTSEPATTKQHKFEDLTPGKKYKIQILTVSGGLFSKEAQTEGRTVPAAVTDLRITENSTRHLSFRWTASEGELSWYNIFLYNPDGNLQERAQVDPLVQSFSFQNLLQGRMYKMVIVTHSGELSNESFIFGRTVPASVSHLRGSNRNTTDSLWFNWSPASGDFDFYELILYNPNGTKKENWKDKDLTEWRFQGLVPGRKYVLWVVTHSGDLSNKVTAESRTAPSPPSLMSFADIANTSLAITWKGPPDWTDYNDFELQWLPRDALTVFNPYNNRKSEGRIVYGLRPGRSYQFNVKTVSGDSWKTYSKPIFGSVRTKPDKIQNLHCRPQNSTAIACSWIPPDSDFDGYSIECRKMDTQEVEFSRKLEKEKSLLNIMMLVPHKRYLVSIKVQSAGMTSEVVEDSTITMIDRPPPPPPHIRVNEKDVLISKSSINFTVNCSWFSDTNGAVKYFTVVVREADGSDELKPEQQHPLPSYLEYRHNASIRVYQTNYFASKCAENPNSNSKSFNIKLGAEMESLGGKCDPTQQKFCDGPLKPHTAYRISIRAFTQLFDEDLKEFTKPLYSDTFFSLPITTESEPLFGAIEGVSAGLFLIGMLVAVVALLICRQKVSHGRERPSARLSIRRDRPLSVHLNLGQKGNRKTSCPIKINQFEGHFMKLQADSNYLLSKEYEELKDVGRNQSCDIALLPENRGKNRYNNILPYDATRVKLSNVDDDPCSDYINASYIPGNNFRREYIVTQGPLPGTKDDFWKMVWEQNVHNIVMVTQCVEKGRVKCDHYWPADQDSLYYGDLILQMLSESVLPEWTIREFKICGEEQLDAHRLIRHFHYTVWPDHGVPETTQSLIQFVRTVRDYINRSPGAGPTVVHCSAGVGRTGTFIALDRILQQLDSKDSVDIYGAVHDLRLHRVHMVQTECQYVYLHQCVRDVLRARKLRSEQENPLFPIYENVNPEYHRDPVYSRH

Row | Compound | IC50
1 | Cc1c(Br)cc(NC(=O)CS(=O)(=O)O)cc1Br | > 100 µM
2 | O=C(CS(=O)(=O)O)Nc1ccc2nc(C(F)(F)F)[nH]c2c1 | > 100 µM
3 | O=C(CS(=O)(=O)O)Nc1cnc2ccccc2c1 | > 100 µM
4 | O=C(Nc1cccc(OCc2ccccc2)c1)C(c1ccccc1)S(=O)(=O)O (stereo not shown) [Compound L319M52] | > 200 µM

target: T1, PP5 (Homo sapiens, UniProt P53041); assay: Phosphatase inhibition assay (pNPP); settings: not given
T1 sequence (P53041 1-499): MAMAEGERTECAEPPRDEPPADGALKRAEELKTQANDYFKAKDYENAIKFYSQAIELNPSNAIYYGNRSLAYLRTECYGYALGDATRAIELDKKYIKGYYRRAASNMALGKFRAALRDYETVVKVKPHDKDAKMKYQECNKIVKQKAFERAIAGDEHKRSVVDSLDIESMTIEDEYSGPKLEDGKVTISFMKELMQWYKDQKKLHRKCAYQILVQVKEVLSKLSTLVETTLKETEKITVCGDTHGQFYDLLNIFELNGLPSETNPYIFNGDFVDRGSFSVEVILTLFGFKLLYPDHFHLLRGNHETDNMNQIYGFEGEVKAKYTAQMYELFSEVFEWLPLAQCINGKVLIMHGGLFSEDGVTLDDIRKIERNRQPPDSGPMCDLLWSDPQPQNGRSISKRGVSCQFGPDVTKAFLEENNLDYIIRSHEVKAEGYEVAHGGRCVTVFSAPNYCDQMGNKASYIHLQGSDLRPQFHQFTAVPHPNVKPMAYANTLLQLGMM

Row | Compound | IC50
5 | Cc1c(Br)cc(NC(=O)CS(=O)(=O)O)cc1Br | > 100 µM
6 | O=C(CS(=O)(=O)O)Nc1ccc2nc(C(F)(F)F)[nH]c2c1 | > 100 µM
7 | O=C(CS(=O)(=O)O)Nc1cnc2ccccc2c1 | > 100 µM
8 | O=C(Nc1cccc(OCc2ccccc2)c1)C(c1ccccc1)S(=O)(=O)O (stereo not shown) [Compound L319M52] | > 200 µM

target: T2, PTP1B (Homo sapiens, UniProt P18031); assay: PTP inhibition assay (pNPP); type: biochemical; settings: pNPP at Km, pH 7.0, 25° C.
T2 sequence (P18031 1-435): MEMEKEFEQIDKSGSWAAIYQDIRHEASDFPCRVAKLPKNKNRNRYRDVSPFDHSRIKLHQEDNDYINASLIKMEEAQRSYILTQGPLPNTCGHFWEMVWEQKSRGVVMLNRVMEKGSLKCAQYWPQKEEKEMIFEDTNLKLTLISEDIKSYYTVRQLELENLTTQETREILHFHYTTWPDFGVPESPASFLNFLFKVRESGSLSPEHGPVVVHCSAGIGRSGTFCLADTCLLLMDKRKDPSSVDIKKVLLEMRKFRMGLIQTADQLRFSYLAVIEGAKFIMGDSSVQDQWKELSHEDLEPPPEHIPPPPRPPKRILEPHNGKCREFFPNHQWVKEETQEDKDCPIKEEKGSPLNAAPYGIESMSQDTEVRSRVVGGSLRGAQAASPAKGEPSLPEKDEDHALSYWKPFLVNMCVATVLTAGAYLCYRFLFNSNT

Row | Compound | IC50
9 | Cc1c(Br)cc(NC(=O)CS(=O)(=O)O)cc1Br | > 100 µM
10 | O=C(CS(=O)(=O)O)Nc1ccc2nc(C(F)(F)F)[nH]c2c1 | > 100 µM
11 | O=C(CS(=O)(=O)O)Nc1cnc2ccccc2c1 | > 100 µM
12 | O=C(Nc1cccc(OCc2ccccc2)c1)C(c1ccccc1)S(=O)(=O)O (stereo not shown) [Compound L319M52] | > 200 µM

target: FAP1 (Homo sapiens, UniProt Q12923); assay: PTP inhibition assay (pNPP); type: biochemical; settings: pNPP at Km, pH 7.0, 25° C.; read-out: IC50 FAP1

Row | Compound | IC50
13 | O=C(CS(=O)(=O)O)Nc1ccc2nc(C(F)(F)F)[nH]c2c1 | > 100 µM
14 | O=C(CS(=O)(=O)O)Nc1cnc2ccccc2c1 | > 100 µM
15 | O=C(Nc1cccc(OCc2ccccc2)c1)C(c1ccccc1)S(=O)(=O)O (stereo not shown) [Compound L319M52] | 88 µM

target: VHR (Homo sapiens, UniProt P51452); assay: PTP inhibition assay (pNPP); type: biochemical; settings: pNPP at Km, pH 7.0, 25° C.
Sequence (P51452 whole entry): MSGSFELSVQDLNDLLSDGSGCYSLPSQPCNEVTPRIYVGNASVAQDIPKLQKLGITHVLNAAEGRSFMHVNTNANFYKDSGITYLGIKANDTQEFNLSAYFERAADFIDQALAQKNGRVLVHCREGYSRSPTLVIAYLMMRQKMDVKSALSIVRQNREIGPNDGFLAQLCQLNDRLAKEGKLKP

Row | Compound | IC50
16 | Cc1c(Br)cc(NC(=O)CS(=O)(=O)O)cc1Br | > 100 µM
17 | O=C(CS(=O)(=O)O)Nc1ccc2nc(C(F)(F)F)[nH]c2c1 | > 100 µM
18 | O=C(CS(=O)(=O)O)Nc1cnc2ccccc2c1 | > 100 µM
19 | O=C(Nc1cccc(OCc2ccccc2)c1)C(c1ccccc1)S(=O)(=O)O (stereo not shown) [Compound L319M52] | > 200 µM

target: mPTPA (Mycobacterium tuberculosis, UniProt P9WIA1); assay: biochemical; settings: not given
Sequence (P9WIA1 whole entry): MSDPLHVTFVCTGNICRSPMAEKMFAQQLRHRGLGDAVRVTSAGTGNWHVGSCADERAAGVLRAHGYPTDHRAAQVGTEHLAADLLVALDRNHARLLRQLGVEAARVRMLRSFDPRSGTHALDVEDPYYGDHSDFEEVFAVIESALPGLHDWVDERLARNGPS

Row | Compound | Ki | Mode of mPTPA inhibition
20 | Cc1c(Br)cc(NC(=O)CS(=O)(=O)O)cc1Br | 0.056 ± 0.002 µM | reversible and competitive inhibitor

same assay, conditions: Biochemical potency against target (Ic50, nM) mPTPA

Row | Compound | IC50
21 | Cc1c(Br)cc(NC(=O)CS(=O)(=O)O)cc1Br | 160 nM

same assay, conditions: IC50 mPTPA

Row | Compound | IC50
22 | Cc1c(Br)cc(NC(=O)CS(=O)(=O)O)cc1Br | 160 nM
23 | O=C(CS(=O)(=O)O)Nc1ccc2nc(C(F)(F)F)[nH]c2c1 | 650 nM
24 | O=C(CS(=O)(=O)O)Nc1cnc2ccccc2c1 | 3000 nM
25 | O=C(Nc1cccc(OCc2ccccc2)c1)C(c1ccccc1)S(=O)(=O)O (stereo not shown) [Compound L319M52] | 560 nM

target: T3, PEST (Homo sapiens, UniProt Q05209); assay: PTP inhibition assay (pNPP); type: biochemical; settings: pNPP at Km, pH 7.0, 25° C.; read-out: IC50 PEST
T3 sequence (Q05209 1-780): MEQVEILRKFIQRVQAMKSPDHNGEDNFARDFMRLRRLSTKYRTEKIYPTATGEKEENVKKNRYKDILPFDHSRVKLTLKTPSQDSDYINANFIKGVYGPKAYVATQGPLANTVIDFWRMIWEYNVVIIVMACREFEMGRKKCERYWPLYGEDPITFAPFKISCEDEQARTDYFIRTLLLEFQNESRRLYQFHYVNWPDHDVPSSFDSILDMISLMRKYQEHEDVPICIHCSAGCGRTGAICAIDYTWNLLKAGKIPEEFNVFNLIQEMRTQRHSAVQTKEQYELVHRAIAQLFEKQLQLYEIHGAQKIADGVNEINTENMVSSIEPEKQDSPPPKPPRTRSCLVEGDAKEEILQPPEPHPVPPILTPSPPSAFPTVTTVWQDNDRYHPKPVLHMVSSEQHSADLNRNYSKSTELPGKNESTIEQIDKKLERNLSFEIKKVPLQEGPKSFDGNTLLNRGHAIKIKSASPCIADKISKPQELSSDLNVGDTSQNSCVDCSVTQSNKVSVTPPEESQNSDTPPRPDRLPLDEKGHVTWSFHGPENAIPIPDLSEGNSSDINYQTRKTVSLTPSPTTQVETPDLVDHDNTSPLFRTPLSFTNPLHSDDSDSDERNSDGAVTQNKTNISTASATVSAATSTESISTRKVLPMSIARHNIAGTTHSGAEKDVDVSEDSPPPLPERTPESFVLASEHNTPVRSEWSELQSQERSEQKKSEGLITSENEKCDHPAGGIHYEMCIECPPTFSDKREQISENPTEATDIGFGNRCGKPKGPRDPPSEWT

Row | Compound | IC50
26 | O=C(CS(=O)(=O)O)Nc1ccc2nc(C(F)(F)F)[nH]c2c1 | > 100 µM
27 | O=C(CS(=O)(=O)O)Nc1cnc2ccccc2c1 | > 100 µM
28 | O=C(Nc1cccc(OCc2ccccc2)c1)C(c1ccccc1)S(=O)(=O)O (stereo not shown) [Compound L319M52] | 77 µM and 77.4 µM

target: T4, TcPTP (Homo sapiens, UniProt P17706); assay: PTP inhibition assay (pNPP); type: biochemical; settings: pNPP at Km, pH 7.0, 25° C.; read-out: IC50 TcPTP
T4 sequence (P17706 1-415): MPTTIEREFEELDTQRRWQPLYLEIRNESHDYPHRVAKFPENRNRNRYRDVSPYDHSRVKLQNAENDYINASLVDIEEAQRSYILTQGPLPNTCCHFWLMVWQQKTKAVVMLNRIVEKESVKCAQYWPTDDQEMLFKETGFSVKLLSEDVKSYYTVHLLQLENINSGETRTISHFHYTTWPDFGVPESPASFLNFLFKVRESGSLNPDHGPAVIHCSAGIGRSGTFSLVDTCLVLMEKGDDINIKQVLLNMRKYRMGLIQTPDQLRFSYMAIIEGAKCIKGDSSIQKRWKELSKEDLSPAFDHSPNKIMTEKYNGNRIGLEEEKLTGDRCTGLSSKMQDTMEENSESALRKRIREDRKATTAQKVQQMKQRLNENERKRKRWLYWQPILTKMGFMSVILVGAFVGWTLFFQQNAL

Row | Compound | IC50
29 | O=C(CS(=O)(=O)O)Nc1ccc2nc(C(F)(F)F)[nH]c2c1 | > 100 µM
30 | O=C(CS(=O)(=O)O)Nc1cnc2ccccc2c1 | > 100 µM
31 | O=C(Nc1cccc(OCc2ccccc2)c1)C(c1ccccc1)S(=O)(=O)O (stereo not shown) [Compound L319M52] | 170 µM and > 100 µM

target: TbPTP1 (Trypanosoma brucei brucei, UniProt Q38AT7); assay: PTP inhibition assay (pNPP); type: biochemical; settings: pNPP at Km, pH 7.0, 25° C.; read-out: IC50 TbPTP1
Sequence (Q38AT7 entry or part of it): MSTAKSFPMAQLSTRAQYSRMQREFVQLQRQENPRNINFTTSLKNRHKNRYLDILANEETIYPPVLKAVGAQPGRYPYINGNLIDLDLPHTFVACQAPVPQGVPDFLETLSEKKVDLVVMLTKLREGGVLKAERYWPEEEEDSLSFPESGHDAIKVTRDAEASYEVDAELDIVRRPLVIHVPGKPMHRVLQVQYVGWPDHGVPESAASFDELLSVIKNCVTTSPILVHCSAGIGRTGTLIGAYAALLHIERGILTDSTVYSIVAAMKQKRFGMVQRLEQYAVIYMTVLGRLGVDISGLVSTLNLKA

Row | Compound | IC50
32 | Cc1c(Br)cc(NC(=O)CS(=O)(=O)O)cc1Br | > 100 µM
33 | O=C(CS(=O)(=O)O)Nc1ccc2nc(C(F)(F)F)[nH]c2c1 | > 100 µM
34 | O=C(CS(=O)(=O)O)Nc1cnc2ccccc2c1 | > 100 µM
35 | O=C(Nc1cccc(OCc2ccccc2)c1)C(c1ccccc1)S(=O)(=O)O (stereo not shown) [Compound L319M52] | 118 µM and > 100 µM

target: PTPε (Homo sapiens, UniProt P23469); assay: PTP inhibition assay (pNPP); type: biochemical; settings: not given
Sequence (P23469 20-700): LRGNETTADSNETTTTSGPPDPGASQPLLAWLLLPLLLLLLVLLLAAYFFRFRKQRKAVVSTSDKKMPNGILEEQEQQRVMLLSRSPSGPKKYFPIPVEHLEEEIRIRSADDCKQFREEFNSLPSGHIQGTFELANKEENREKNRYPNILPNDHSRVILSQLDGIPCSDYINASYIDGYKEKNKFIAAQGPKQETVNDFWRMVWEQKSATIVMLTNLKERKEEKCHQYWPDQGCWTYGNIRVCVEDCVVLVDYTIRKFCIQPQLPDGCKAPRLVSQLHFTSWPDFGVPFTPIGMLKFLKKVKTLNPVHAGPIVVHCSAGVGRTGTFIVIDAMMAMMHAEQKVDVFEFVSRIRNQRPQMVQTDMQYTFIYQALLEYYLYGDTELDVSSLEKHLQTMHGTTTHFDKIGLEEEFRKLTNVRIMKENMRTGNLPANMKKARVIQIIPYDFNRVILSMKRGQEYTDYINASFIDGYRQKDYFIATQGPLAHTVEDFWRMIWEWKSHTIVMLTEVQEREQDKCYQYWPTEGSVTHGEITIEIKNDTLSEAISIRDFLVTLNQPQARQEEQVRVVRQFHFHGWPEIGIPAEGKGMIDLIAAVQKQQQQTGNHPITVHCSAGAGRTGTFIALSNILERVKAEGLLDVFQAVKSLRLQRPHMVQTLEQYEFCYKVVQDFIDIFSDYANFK

Row | Compound | IC50
36 | Cc1c(Br)cc(NC(=O)CS(=O)(=O)O)cc1Br | > 100 µM
37 | O=C(CS(=O)(=O)O)Nc1ccc2nc(C(F)(F)F)[nH]c2c1 | > 100 µM
38 | O=C(CS(=O)(=O)O)Nc1cnc2ccccc2c1 | > 100 µM
39 | O=C(Nc1cccc(OCc2ccccc2)c1)C(c1ccccc1)S(=O)(=O)O (stereo not shown) [Compound L319M52] | > 200 µM

Reference: patent US10494332B2, “Protein tyrosine phosphatases or SHP2 inhibitors and uses thereof” (Indiana University Research and Technology Corporation, priority 2015, dated 2019)
